According to patent US12110286B2, “Benzimidazolone derived inhibitors of BCL6” (Cancer Research Technology Limited, priority 2017, dated 2024):

Molecular target: Trx-6×His-BCL6 (human BCL6 BTB domain covering amino-acid sequence 5-129) (Homo sapiens (Human), UniProt P41182)
Assay: HTRF in vitro assay (BCL6 / BCOR-AF633 peptide)
Type: binding
Settings: for activity in the HTRF assay: result in words
Procedure: The % inhibition at each concentration was calculated by normalising FRET ratio to the appropriate high (DMSO with all reagents) and low (DMSO without BCL6) controls.

[1] = further generated data, 1 nM Trx-6×His-BCL6, 300 nM BCOR-AF633 peptide, 0.5 nM anti-6×His-Terbium cryptate
[2] = initially generated data, 10 nM Trx-6×His-BCL6, 300 nM BCOR-AF633 peptide, 1 nM anti-6×His-Terbium cryptate

SMILES | HTRF pIC50 [1] | HTRF pIC50 [2] | activity in the HTRF assay
C[C@@H]1C[C@H](C)CN(c2cc(Nc3ccc4c(c3)n(CCC(C)(C)O)c(=O)n4C)c(Cl)cn2)C1 [Example 36d, 5-((5-chloro-2-((3S,5R)-3,5-dimethylpiperidin-1-yl)pyridin-4-yl)amino)-3-(3-hydroxy-3-methylbutyl)-1-methyl-1,3-dihydro-2H-benzo[d]imidazol-2-one] | 5.48 | – | –
CCC1(Cn2c(=O)n(C)c3ccc(Nc4nc(N5C[C@@H](C)O[C@@H](C)C5)ncc4Cl)cc32)CN(C)C(=O)O1 (stereo partly drawn) [Example 20l] | 6.39 | – | –
Cn1c(=O)n(CCc2ccccc2)c2cc(Nc3ccnc4ccnn34)ccc21 [1-methyl-3-phenethyl-5-(pyrazolo[1,5-a]pyrimidin-7-ylamino)-1,3-dihydro-2H-benzo[d]imidazol-2-one] | – | – | did not exhibit the desired activity
Cc1ccnn1-c1ncc(Cl)c(Nc2ccc3c(c2)n(CCC(C)(C)O)c(=O)n3C)n1 [Example 16b, 5-((5-chloro-2-(5-methyl-1H-pyrazol-1-yl)pyrimidin-4-yl)amino)-3-(3-hydroxy-3-methylbutyl)-1-methyl-1,3-dihydro-2H-benzo[d]imidazol-2-one] | 6.31 | – | –
Cc1cc(C)n(-c2ncc(Cl)c(Nc3ccc4c(c3)[nH]c(=O)n4C)n2)n1 [Example 15h] | 5.86 | – | –
Cn1ccc(-c2ncc(Cl)c(Nc3ccc4c(c3)n(CCC(C)(C)O)c(=O)n4C)n2)n1 [Example 23a, 5-((5-chloro-2-(1-methyl-1H-pyrazol-3-yl)pyrimidin-4-yl)amino)-3-(3-hydroxy-3-methylbutyl)-1-methyl-1,3-dihydro-2H-benzo[d]imidazol-2-one] | 6.35 | – | –
CC(C)Nc1ncc(Cl)c(Nc2ccc3c(c2)n(CCC(C)(C)O)c(=O)n3C)n1 [Example 20f] | 5.99 | – | –
Cn1cc2c(n1)CN(c1ncc(Cl)c(Nc3ccc4c(c3)n(CCC(C)(C)O)c(=O)n4C)n1)CC2 [Example 42e, 5-((5-chloro-2-(2-methyl-2,4,5,7-tetrahydro-6H-pyrazolo[3,4-c]pyridin-6-yl)pyrimidin-4-yl)amino)-3-(3-hydroxy-3-methylbutyl)-1-methyl-1,3-dihydro-2H-benzo[d]imidazol-2-one] | 6.68 | – | –
CN(C)C(=O)C1CCN(c2ncc(Cl)c(Nc3ccc4c(c3)n(CCC(C)(O)CCO)c(=O)n4C)n2)CC1 (stereo not drawn) [Example 15k] | 6.27 | – | –
CCC(C)(O)CCn1c(=O)n(C)c2ccc(Nc3nc(-n4nc(C)cc4C)ncc3Cl)cc21 (stereo not drawn) [Example 15f] | 6.00 | – | –
CCC(C)(O)CCn1c(=O)n(C)c2ccc(Nc3nc(Cl)ncc3Cl)cc21 (stereo not drawn) [Example 22g, 5-((2,5-dichloropyrimidin-4-yl)amino)-3-(3-hydroxy-3-methylpentyl)-1-methyl-1,3-dihydro-2H-benzo[d]imidazol-2-one] | 5.27 | – | –
CN(C)c1ncc(Cl)c(Nc2ccc3c(c2)n(CCC(C)(C)O)c(=O)n3C)n1 [Example 15g] | 5.89 | – | –
Cn1c(=O)n(C)c2cc(Nc3ccncc3C(F)(F)F)ccc21 [1,3-dimethyl-5-((3-(trifluoromethyl)pyridin-4-yl)amino)-1,3-dihydro-2H-benzo[d]imidazol-2-one] | – | – | did not exhibit the desired activity
Cn1c(=O)n(CCC(C)(C)O)c2cc(Nc3ncnc(Cl)c3C#N)c(F)cc21 [Example 22d] | 5.45 | – | –
Cn1c(=O)n(C)c2cc(Nc3cc(C(F)(F)F)nc4ncnn34)ccc21 [1,3-dimethyl-5-((5-(trifluoromethyl)-[1,2,4]triazolo[1,5-a]pyrimidin-7-yl)amino)-1,3-dihydro-2H-benzo[d]imidazol-2-one] | – | – | did not exhibit the desired activity

Results, then the molecule that gave them:

HTRF pIC50 [1] | HTRF pIC50 [2] | activity in the HTRF assay | SMILES
5.87 | 6.17 | – | CCOC(=O)c1cc(Nc2ccc3c(c2)n(CC[C@@H](C)O)c(=O)n3C)c(C#N)c(Cl)n1 [Example 2d, Ethyl 6-chloro-5-cyano-4-[[3-[(3R)-3-hydroxybutyl]-1-methyl-2-oxo-benzimidazol-5-yl]amino]pyridine-2-carboxylate]
– | – | did not exhibit the desired activity | Cn1c(=O)n(CC2CCN2)c2cc(Nc3ccnc(Cl)c3C#N)ccc21 (stereo not drawn) [4-((3-(azetidin-2-ylmethyl)-1-methyl-2-oxo-2,3-dihydro-1H-benzo[d]imidazol-5-yl)amino)-2-chloronicotinonitrile]
5.34 | – | – | Cn1c(=O)n(C[C@@H]2CCCN2CCO)c2cc(Nc3ccnc(Cl)c3C#N)ccc21 [Example 25g, (S)-2-chloro-4-((3-((1-(2-hydroxyethyl)pyrrolidin-2-yl)methyl)-1-methyl-2-oxo-2,3-dihydro-1H-benzo[d]imidazol-5-yl)amino)nicotinonitrile: formic acid (1:1)]
5.55 | – | – | Cn1c(=O)n(CC2C[C@H](F)CN2CC(F)(F)F)c2cc(Nc3ccnc(Cl)c3C#N)ccc21 (stereo in doubt) [Example 25h, 2-chloro-4-((3-(((2R,4S)-4-fluoro-1-(2,2,2-trifluoroethyl)pyrrolidin-2-yl)methyl)-1-methyl-2-oxo-2,3-dihydro-1H-benzo[d]imidazol-5-yl)amino)nicotinonitrile]
5.29 | 5.55 | – | COC(=O)CCCn1c(=O)n(C)c2ccc(Nc3ccnc(Cl)c3C#N)cc21 [Example 10d]
– | 6.04 | – | CNC(=O)c1cc(Nc2ccc3c(c2)n(CC[C@H](C)n2cccn2)c(=O)n3C)c(C#N)c(Cl)n1 [Example 1d, 6-chloro-5-cyano-N-methyl-4-[[1-methyl-2-oxo-3-[(3S)-3-pyrazol-1-ylbutyl]benzimidazol-5-yl]amino]pyridine-2-carboxamide]
5.90 | – | – | Cn1c(=O)n(C[C@@H]2CCC[C@]2(C)O)c2cc(Nc3ccnc(Cl)c3C#N)ccc21 [Example 22n]
5.70 | – | – | Cn1c(=O)n(CCC(C)(O)C(F)(F)F)c2cc(Nc3ccnc(Cl)c3C#N)ccc21 (stereo not drawn) [Example 27d, 2-chloro-4-((1-methyl-2-oxo-3-(4,4,4-trifluoro-3-hydroxy-3-methylbutyl)-2,3-dihydro-1H-benzo[d]imidazol-5-yl)amino)nicotinonitrile]
5.65 | – | – | Cn1c(=O)n(CCC(C)(C)O)c2cc(Nc3cc(Br)ncc3Cl)ccc21 [Example 22b, 5-((2-bromo-5-chloropyridin-4-yl)amino)-3-(3-hydroxy-3-methylbutyl)-1-methyl-1,3-dihydro-2H-benzo[d]imidazol-2-one]
– | 6.01 | – | C[C@@H](O)CCn1c(=O)n(C)c2ccc(Nc3cc(C(=O)O)nc(Cl)c3C#N)cc21 [Example 1e, 6-chloro-5-cyano-4-[[3-[(3R)-3-hydroxybutyl]-1-methyl-2-oxo-benzimidazol-5-yl]amino]pyridine-2-carboxylic acid]
5.78 | 5.67 | – | COC(=O)C(C)CCn1c(=O)n(C)c2ccc(Nc3ccnc(Cl)c3C#N)cc21 (stereo not drawn) [Example 1j, Methyl 4-[6-[(2-chloro-3-cyano-4-pyridyl)amino]-3-methyl-2-oxo-benzimidazol-1-yl]-2-methyl-butanoate]
– | – | did not exhibit the desired activity | CN1CCC[C@@H]1Cn1c(=O)n(C)c2ccc(Nc3ccnc(Cl)c3C#N)cc21 [(R)-2-chloro-4-((1-methyl-3-((1-methylpyrrolidin-2-yl)methyl)-2-oxo-2,3-dihydro-1H-benzo[d]imidazol-5-yl)amino)nicotinonitrile]
6.19 | 5.99 | – | COC(=O)C(C)CCn1c(=O)n(C)c2ccc(Nc3cc(-c4nc(C)no4)nc(Cl)c3C#N)cc21 (stereo not drawn) [Example 5, Methyl 4-[6-[[2-chloro-3-cyano-6-(3-methyl-1,2,4-oxadiazol-5-yl)-4-pyridyl]amino]-3-methyl-2-oxo-benzimidazol-1-yl]-2-methyl-butanoate]
5.38 | 5.52 | – | COC(=O)C(CCn1c(=O)n(C)c2ccc(Nc3ccnc(Cl)c3C#N)cc21)OCC1CC1 (stereo not drawn) [Example 10e]
5.93 | – | – | Cn1c(=O)n(CCC(C)(C)O)c2cc(Nc3ccncc3Cl)ccc21 [Example 29e, 5-((3-chloropyridin-4-yl)amino)-3-(3-hydroxy-3-methylbutyl)-1-methyl-1,3-dihydro-2H-benzo[d]imidazol-2-one]
5.41 | – | – | CCNC(C)CCn1c(=O)n(C)c2ccc(Nc3ccnc(Cl)c3C#N)cc21.Cl (stereo not drawn) [Example 26a, 2-chloro-4-((3-(3-(ethylamino)butyl)-1-methyl-2-oxo-2,3-dihydro-1H-benzo[d]imidazol-5-yl)amino)nicotinonitrile hydrochloride]
5.37 | – | – | Cn1c(=O)n(CC2CCCCN2CC(F)(F)F)c2cc(Nc3ccnc(Cl)c3C#N)ccc21 (stereo not drawn) [Example 25e, 2-chloro-4-((1-methyl-2-oxo-3-((1-(2,2,2-trifluoroethyl)piperidin-2-yl)methyl)-2,3-dihydro-1H-benzo[d]imidazol-5-yl)amino)nicotinonitrile]
5.88 | – | – | CCC1(Cn2c(=O)n(C)c3ccc(Nc4ccnc(Cl)c4C#N)cc32)CN(C)C(=O)O1 (stereo not drawn) [Example 22e]
– | – | did not exhibit the desired activity | Cn1c(=O)n(CC2(CO)COC2)c2cc(Nc3ccnc(Cl)c3C#N)ccc21 [2-chloro-4-((3-((3-(hydroxymethyl)oxetan-3-yl)methyl)-1-methyl-2-oxo-2,3-dihydro-1H-benzo[d]imidazol-5-yl)amino)nicotinonitrile]
5.44 | – | – | Cn1c(=O)n(CCC2(C)CO2)c2cc(Nc3ccnc(Cl)c3C#N)ccc21 (stereo not drawn) [Example 32, 2-chloro-4-((1-methyl-3-(2-(2-methyloxiran-2-yl)ethyl)-2-oxo-2,3-dihydro-1H-benzo[d]imidazol-5-yl)amino)nicotinonitrile]
6.08 | 5.77 | – | Cn1c(=O)n(CCC(C)(C)O)c2cc(Nc3ccnc(Cl)c3C#N)ccc21 [Example 1i, 2-chloro-4-[[3-(3-hydroxy-3-methyl-butyl)-1-methyl-2-oxo-benzimidazol-5-yl]amino]pyridine-3-carbonitrile]
